Laboratory results reported in patent US10472605B2, “Serum-free medium” (National University of Ireland, Galway, priority 2014, dated 2019).

Experiments:
[1] = tested on: MSC; assay: Growth/proliferation of MSC isolated in 10% FBS and re-attached under serum-free conditions; type: cell-based; details: fibronectin-coated; for MSC proliferation in serum free medium containing FGF2 (5 ng/ml): 5 days; for MSC proliferation in serum free medium: over 3 passages, days 5, 10 and 15
Procedure: Tissue culture flasks were pre-coated with FN (black), HA (blue), VN (red) or LN (green) and cells were allowed to adhere in serum-free conditions. Cell numbers were obtained after 5 days. Controls include serum-free plating without the presence of an ECM attachment factor and 10% FBS (grey). Results are representative of 3 biological replicates with n=2;
Cells were then cultured in the presence of growth factors and passaged every 5 days. Controls include serum free plating without growth factors and 10% FBS. Results are representative of 3 biological replicates with n=2;
Cells were then cultured in serum-free media containing FGF2 (5 ng/ml) in the presence of PGE2, cholesterol or lipoprotein for 5 days. Controls include serum free plating without growth factors 10% FBS (A). Cells were then cultured in the presence of lipoprotein and passaged every 5 days for 3 passages, controls include serum free plating without lipoprotein (B). Results are representative of 3 biological replicates with n=2;
(§1) Proliferation of the MSC attached in the presence of basic fibroblast growth factor (bFGF2, FGF2) was also assessed after 6 days.
Serum-free basal medium formulation was selected based on the literature describing low-serum cell culture of dental pulp stem cells (Tarle et al., 2010). The basal medium was composed of ITS (1%, BD), ascorbic acid (10 mM, Sigma Aldrich), dexamethasone (10 nM, Sigma Aldrich), human serum albumin (50 mg/ml, Sigma Aldrich), penicillin/streptomycin solution (1%, Gibco) and MEM-α (Gibco). The effect of a range of growth factors on MSC proliferation was then examined. MSC were attached on fibronectin-coated tissue culture plastic for 48 hours in serum-free basal medium.
The effect of FGF2/FGF4 and FGF7 (1, 5 and 10 ng/ml), PDGFaa/PDGFab and PDGFbb (1, 5 and 10 ng/ml) on MSC proliferation over 3 passages on days 5, 10 and 15 was examined.
To further enhance MSC viability and proliferation lipoprotein was added to the serum-free basal medium. MSC isolated in the presence of serum were seeded on fibronectin-coated tissue culture plastic in serum free medium containing FGF2. Initially a range of factors were screened to support MSC viability after trypsinisation; the effect of prostoglandin E2 (PGE2; 50 μg/ml), cholesterol (30 μg/ml) and lipoprotein (4 μg/ml) on MSC proliferation in serum free medium containing FGF2 (5 ng/ml) was examined.

[2] = tested on: MSC; assay: Attachment of MSC isolated in 10% FBS and re-attached under serum-free conditions; type: cell-based; details: EGF 10 ng/ml, serum free with FGF2, 3 passages
Source text: Tissue culture flasks were pre-coated with fibronectin (FN; black), hylauronic acid (HA; blue), vitronectin (VN; red) or laminin (LN; green) and cells were allowed to adhere in serum-free conditions. Controls include serum-free plating without the presence of an extra-cellular matrix (ECM) attachment factor and 10% FBS (grey). Results are representative of 3 biological replicates with n=2;
MSC were attached on tissue culture flasks in the presence of EGF (red) or on tissue culture plastic precoated with FN (purple) or in the presence of EGF on fibronectin coated plastic (green) and passaged every 3 days. Controls include serum free plating without the presence of an ECM attachment factor (blue) and 10% FBS (black). Results are representative of 3 biological replicates with n=2;
as §1

[3] = tested on: MSC; assay: Serum-free MSC isolation from bone marrow (CFU and cell number at end of primary culture); type: cell-based
Procedure: The number of colony forming units (CFU; FIG. 6A) and cell number (FIG. 6B) was determined at the end of primary culture. An additional marrow was seeded on tissue culture plastic pre-coated with varying concentrations of fibronectin to determine optimal concentration of fibronectin required. The number of CFU (FIG. 6C) and cell yield (FIG. 6D) was determined at the end of primary culture. Controls include MSC isolation in the presence of 10% FBS or on non-coated tissue culture plastic;
The number of colony forming units (FIG. 7A) and cell number (FIG. 7B) was determined at the end of primary culture. Controls include MSC isolation in the presence of 10% FBS or on non-coated tissue culture plastic;
Initially MSC were isolated from three bone marrows to determine a suitable attachment substrate. […] A further bone marrow donor was then screened to determine the optimal fibronectin concentration; 6 μg/ml was selected as the favourable concentration (FIGS. 6C and 6D).
To examine the role of EGF in MSC isolation and attachment, 5 bone marrows were tested. MSC were isolated in the presence of FGF2 (5 ng/ml) on fibronectin coated plastic in the presence of EGF, or on tissue culture plastic in the presence of EGF.

[4] = tested on: bone marrow mononuclear cells (MNCs); assay: CFU-f assay, SF medium with various lipoproteins or fibronectin; type: cell-based, human; details: no fibronectin vs pre-coating vs fibronectin added to the medium; standard SF medium with LDL
Procedure: For the lipoprotein study, Serum Free (SF) media was prepared containing: no lipoprotein (No lipo), very low density lipoprotein (VLDL), low density lipoprotein (LDL) and high density lipoprotein (HDL). Other lipoproteins that exist are chylomicrons and intermediate density lipoprotein which were not assessed in this study as they were not commercially available at the time. MSCs were isolated from bone marrow based on plastic adherence in SF medium by plating 40×10^6 human bone marrow mononuclear cells/T-175 and culturing at 37° C., 5% CO2, 21% O2. Cells were subcultured once they had reached 80-90% confluence. MSCs were evaluated by assessing growth kinetics, tri-lineage differentiation and surface marker phenotype at the end of passage 3 (P3). For the lipoprotein study, SF medium was modified to contain one of the various lipoproteins at 80 ng/mL and these cells are seeded onto T175 flasks, which had been pre-coated with fibronectin. For the fibronectin study described, standard SF medium containing LDL (Standard Formulation) was used and cells were seeded onto T175 flasks without fibronectin, with fibronectin pre-coating or with fibronectin added to the medium itself. CFU-f assays were carried out by seeding bone marrow mononuclear cells (MNCs) at a density of 1×10^6 MNC/10 cm^2 in triplicate in 6-well plates. […]

[5] = tested on: MSCs; assay: Growth kinetics of MSC cultures, lipoprotein and fibronectin study; type: cell-based, human; details: no fibronectin vs pre-coating vs fibronectin in the medium
Procedure: MSCs were isolated from bone marrow based on plastic adherence in SF medium by plating 40×10^6 human bone marrow mononuclear cells/T-175 and culturing at 37° C., 5% CO2, 21% O2. Cells were subcultured once they had reached 80-90% confluence. MSCs were evaluated by assessing growth kinetics, tri-lineage differentiation and surface marker phenotype at the end of passage 3 (P3). For the lipoprotein study, SF medium was modified to contain one of the various lipoproteins at 80 ng/mL and these cells are seeded onto T175 flasks, which had been pre-coated with fibronectin. […]
VLDL and LDL are involved in trafficking fats to cells in arteries which may indicate why these groups had cells which formed more disperse healthier looking CFU-fs. […] Applying these CFU-f numbers with cell yields at the end of each passage, growth curves were calculated. […]
The final aim of this work was to determine if fibronectin is required for isolation and establishment of MSC cultures in the proprietary serum-free medium. […] This was assessed by looking at CFU-f numbers and growth kinetics of cells isolated from bone marrow directly onto tissue culture plastic without fibronectin, onto tissue culture plastic pre-coated with fibronectin and finally with fibronectin incorporated into the medium itself.

[6] = three bone marrows, attachment substrate vs vitronectin and hyaluronic acid

CCCCC[C@H](O)/C=C/[C@H]1[C@H](O)CC(=O)[C@@H]1C/C=C\CCCC(=O)O [PGE2, prostoglandin E2, reference compound]
MSC proliferation in serum free medium containing FGF2 (5 ng/ml) ([1]; 50 μg/ml): inhibitory effect

CC(C)CCC[C@@H](C)[C@H]1CC[C@H]2[C@@H]3CC=C4C[C@@H](O)CC[C@]4(C)[C@H]3CC[C@]12C [cholesterol, reference compound]
MSC proliferation in serum free medium containing FGF2 (5 ng/ml) ([1]; 30 μg/ml): inhibitory effect

EGF: epidermal growth factor
MSC attachment over passaging [2]: increased MSC attachment

FGF2: basic fibroblast growth factor
MSC proliferation in serum free medium ([1]; 5 ng/ml): increased MSC proliferation

PDGFab: growth factor PDGFab
MSC proliferation in serum free medium ([1]; 10 ng/ml): increased MSC proliferation

fibronectin
requirement for MSC attachment ([3]; 5 bone marrows, FGF2 5 ng/ml, with EGF, coated vs uncoated plastic): required | cell number at the end of the first passage [3, 6]: greatest cell number | colony forming units [3, 6]: more colony forming units | ability of CFU-fs to form / CFU-f numbers with or without fibronectin [4]: No difference | growth kinetics of the MSC cultures with or without fibronectin [5]: unaffected
